# Earlier results, collected in publication PMC3971013 (Journal of natural products, 2013).
# Non-standard residues stand in square brackets, D forms with d. Residues, ends and D or L forms follow the SMILES beside them. *: point of attachment. Octanoyl(2R-Me,7,8-dehydro) = C=CCCCC[C@@H](C)C(=O)*; Oct7ynoyl(2R-Me) = C#CCCCC[C@@H](C)C(=O)*; NMeF = CN[C@@H](Cc1ccccc1)C(=O)O; X4 = CC(=O)CCCC[C@@H](C)C(=O)*; Oct(7)enoyl = C=CCCCCCC(=O)*; Oct(7)ynoyl = C#CCCCCCC(=O)*; NMeV = CN[C@H](C(=O)O)C(C)C; Hept6ynoyl = C#CCCCCC(=O)*; NMeA = CN[C@@H](C)C(=O)O; X3 = C=CCCCCC(=O)*
# Test system: Vero Cells
# Settings: not given
row,SMILES,LD50 Vero Cells [µM]
1,C=CCCCCC(=O)N(C)[C@H](C(=O)N(C)[C@H](C(=O)N(C)[C@H](C(=O)N(C)[C@@H](C)C(=O)N(C)[C@@H](Cc1ccccc1)C(=O)N(C)C)C(C)C)C(C)C)C(C)C [Compound 11] (X3-[NMeV][NMeV][NMeV][NMeA][NMeF]-NMe2),93.1
2,C=CCCCCC(=O)N(C)[C@H](C(=O)N(C)[C@H](C(=O)N(C)[C@H](C(=O)N(C)[C@@H](C)C(=O)N(C)[C@@H](Cc1ccccc1)C(=O)O)C(C)C)C(C)C)C(C)C [Compound 15] (X3-[NMeV][NMeV][NMeV][NMeA][NMeF]-OH),>70.0
3,C=CCCCCCC(=O)N(C)[C@H](C(=O)N(C)[C@H](C(=O)N(C)[C@H](C(=O)N(C)[C@@H](C)C(=O)N(C)[C@@H](Cc1ccccc1)C(=O)OC)C(C)C)C(C)C)C(C)C [Compound 21] ({Oct(7)enoyl}-[NMeV][NMeV][NMeV][NMeA][NMeF]-OMe),18.8
4,C=CCCCCC(=O)N(C)[C@H](C(=O)N(C)[C@H](C(=O)N(C)[C@H](C(=O)N(C)[C@@H](C)C(=O)N(C)[C@@H](Cc1ccccc1)C(=O)OC)C(C)C)C(C)C)C(C)C [Compound 19] (X3-[NMeV][NMeV][NMeV][NMeA][NMeF]-OMe),24.7
5,C=CCCCCCC(=O)N(C)[C@H](C(=O)N(C)[C@H](C(=O)N(C)[C@H](C(=O)N(C)[C@@H](C)C(=O)N(C)[C@@H](Cc1ccccc1)C(=O)O)C(C)C)C(C)C)C(C)C [Compound 17] ({Oct(7)enoyl}-[NMeV][NMeV][NMeV][NMeA][NMeF]-OH),192.4
6,C=CCCCCCC(=O)N(C)[C@H](C(=O)N(C)[C@H](C(=O)N(C)[C@H](C(=O)N(C)[C@@H](C)C(=O)N(C)[C@@H](Cc1ccccc1)C(=O)N(C)C)C(C)C)C(C)C)C(C)C [Compound 13] ({Oct(7)enoyl}-[NMeV][NMeV][NMeV][NMeA][NMeF]-NMe2),23.8
7,C#CCCCCC(=O)N(C)[C@H](C(=O)N(C)[C@H](C(=O)N(C)[C@H](C(=O)N(C)[C@@H](C)C(=O)N(C)[C@@H](Cc1ccccc1)C(=O)N(C)C)C(C)C)C(C)C)C(C)C [Compound 10] (Hept6ynoyl-[NMeV][NMeV][NMeV][NMeA][NMeF]-NMe2),155.7
8,"C=CCCCC[C@@H](C)C(=O)N(C)[C@H](C(=O)N(C)[C@H](C(=O)N[C@H](C(=O)N(C)[C@@H](C)C(=O)N(C)[C@@H](Cc1ccccc1)C(N)=O)C(C)C)C(C)C)C(C)C [Almiramide C (9), Almiramide C] ({Octanoyl(2R-Me,7,8-dehydro)}-[NMeV][NMeV]V[NMeA][NMeF]-NH2)",33.1

# Same assay, conditions: previously reported LD50 values
row,SMILES,LD50 Vero Cells [µM]
1,C#CCCCCCC(=O)N(C)[C@H](C(=O)N(C)[C@H](C(=O)N(C)[C@H](C(=O)N(C)[C@@H](C)C(=O)N(C)[C@@H](Cc1ccccc1)C(=O)O)C(C)C)C(C)C)C(C)C [Compound 16] ({Oct(7)ynoyl}-[NMeV][NMeV][NMeV][NMeA][NMeF]-OH),>68.9
2,C#CCCCCC(=O)N(C)[C@H](C(=O)N(C)[C@H](C(=O)N(C)[C@H](C(=O)N(C)[C@@H](C)C(=O)N(C)[C@@H](Cc1ccccc1)C(=O)OC)C(C)C)C(C)C)C(C)C [Compound 18] (Hept6ynoyl-[NMeV][NMeV][NMeV][NMeA][NMeF]-OMe),41.4
3,C#CCCCCCC(=O)N(C)[C@H](C(=O)N(C)[C@H](C(=O)N(C)[C@H](C(=O)N(C)[C@@H](C)C(=O)N(C)[C@@H](Cc1ccccc1)C(=O)N(C)C)C(C)C)C(C)C)C(C)C [Compound 12] ({Oct(7)ynoyl}-[NMeV][NMeV][NMeV][NMeA][NMeF]-NMe2),159.4
4,C#CCCCCC(=O)N(C)[C@H](C(=O)N(C)[C@H](C(=O)N(C)[C@H](C(=O)N(C)[C@@H](C)C(=O)N(C)[C@@H](Cc1ccccc1)C(=O)O)C(C)C)C(C)C)C(C)C [Compound 14] (Hept6ynoyl-[NMeV][NMeV][NMeV][NMeA][NMeF]-OH),281.1
5,"CC(=O)CCCC[C@@H](C)C(=O)N(C)[C@H](C(=O)N(C)[C@H](C(=O)N[C@H](C(=O)N(C)[C@@H](C)C(=O)N(C)[C@@H](Cc1ccccc1)C(N)=O)C(C)C)C(C)C)C(C)C [Almiramide A (7), Almiramide A] (X4-[NMeV][NMeV]V[NMeA][NMeF]-NH2)",113.1
6,C#CCCCCCC(=O)N(C)[C@H](C(=O)N(C)[C@H](C(=O)N(C)[C@H](C(=O)N(C)[C@@H](C)C(=O)N(C)[C@@H](Cc1ccccc1)C(=O)OC)C(C)C)C(C)C)C(C)C [Compound 20] ({Oct(7)ynoyl}-[NMeV][NMeV][NMeV][NMeA][NMeF]-OMe),27.0
7,"C#CCCCC[C@@H](C)C(=O)N(C)[C@H](C(=O)N(C)[C@H](C(=O)N[C@H](C(=O)N(C)[C@@H](C)C(=O)N(C)[C@@H](Cc1ccccc1)C(N)=O)C(C)C)C(C)C)C(C)C [Almiramide B (8), Almiramide B] ({Oct7ynoyl(2R-Me)}-[NMeV][NMeV]V[NMeA][NMeF]-NH2)",52.3
